In ChEMBL document CHEMBL3044584, “4-Sulfenyl-2-carbamoyl-4-isoxazolin-3-ones: biological isostere to 4-chloro-2-carbamoyl-4-isoxazolin-3-ones” (Chem Pharm Bull (Tokyo), 2000):

How the values were obtained:
Eleocharis kuroguwai [1] = experiment: Pre-emergent herbicidal activity against Eleocharis kuroguwai assessed as growth inhibition at 25 g/a after 3 weeks in greenhouse conditions; assay type: functional; conditions: pre-emergence, 504 h, read-out: GI
Cyperus serotinus [2] = experiment: Pre-emergent herbicidal activity against Cyperus serotinus assessed as growth inhibition at 25 g/a after 3 weeks in greenhouse conditions; assay type: functional; conditions: pre-emergence, 504 h, read-out: GI
Eleocharis acicularis [3] = experiment: Pre-emergent herbicidal activity against Eleocharis acicularis assessed as growth inhibition at 10 g/a after 3 weeks in greenhouse conditions; assay type: functional; conditions: pre-emergence, 504 h, read-out: GI
Cyperus serotinus [4] = experiment: Pre-emergent herbicidal activity against Cyperus serotinus assessed as growth inhibition at 10 g/a after 3 weeks in greenhouse conditions; assay type: functional; conditions: pre-emergence, 504 h, read-out: GI
Eleocharis kuroguwai [5] = experiment: Pre-emergent herbicidal activity against Eleocharis kuroguwai assessed as growth inhibition at 10 g/a after 3 weeks in greenhouse conditions; assay type: functional; conditions: pre-emergence, 504 h, read-out: GI
Lindernia procumbens [6] = experiment: Pre-emergent herbicidal activity against Lindernia procumbens assessed as growth inhibition at 10 g/a after 3 weeks in greenhouse conditions; assay type: functional; conditions: pre-emergence, 504 h, read-out: GI
[7] = system: Schoenoplectiella juncoides; experiment: Pre-emergent herbicidal activity against Schoenoplectiella juncoides assessed as growth inhibition at 25 g/a after 3 weeks in greenhouse conditions; assay type: functional; conditions: pre-emergence, 504 h, read-out: GI
Eleocharis acicularis [8] = experiment: Pre-emergent herbicidal activity against Eleocharis acicularis assessed as growth inhibition at 25 g/a after 3 weeks in greenhouse conditions; assay type: functional; conditions: pre-emergence, 504 h, read-out: GI
Lindernia procumbens [9] = experiment: Pre-emergent herbicidal activity against Lindernia procumbens assessed as growth inhibition at 25 g/a after 3 weeks in greenhouse conditions; assay type: functional; conditions: pre-emergence, 504 h, read-out: GI
Echinochloa oryzicola [10] = experiment: Pre-emergent herbicidal activity against Echinochloa oryzicola assessed as growth inhibition at 25 g/a after 3 weeks in greenhouse conditions; assay type: functional; conditions: pre-emergence, 504 h, read-out: GI
[11] = Phytotoxicity against Oryza sativa (rice) assessed as growth inhibition at 25 g/a after 3 weeks in greenhouse conditions; assay type: organism-based; conditions: in vivo, read-out: GI
[12] = Phytotoxicity against Oryza sativa (rice) assessed as growth inhibition at 10 g/a after 3 weeks in greenhouse conditions; assay type: organism-based; conditions: in vivo, read-out: GI
[13] = system: Schoenoplectiella juncoides; experiment: Pre-emergent herbicidal activity against Schoenoplectiella juncoides assessed as growth inhibition at 10 g/a after 3 weeks in greenhouse conditions; assay type: functional; conditions: pre-emergence, 504 h, read-out: GI
Echinochloa oryzicola [14] = experiment: Pre-emergent herbicidal activity against Echinochloa oryzicola assessed as growth inhibition at 10 g/a after 3 weeks in greenhouse conditions; assay type: functional; conditions: pre-emergence, 504 h, read-out: GI

Structure (SMILES) | inhibition of growth at 2500 g/ha (Eleocharis kuroguwai [1]) | inhibition of growth at 2500 g/ha (Cyperus serotinus [2]) | inhibition of growth at 1000 g/ha (Eleocharis acicularis [3]) | inhibition of growth at 1000 g/ha (Cyperus serotinus [4]) | inhibition of growth at 1000 g/ha (Eleocharis kuroguwai [5]) | inhibition of growth at 1000 g/ha (Lindernia procumbens [6]) | inhibition of growth at 2500 g/ha [7] | inhibition of growth at 2500 g/ha (Eleocharis acicularis [8]) | inhibition of growth at 2500 g/ha (Lindernia procumbens [9]) | inhibition of growth at 2500 g/ha (Echinochloa oryzicola [10]) | inhibition at 504 h [11] | inhibition at 504 h [12] | inhibition of growth at 1000 g/ha [13] | inhibition of growth at 1000 g/ha (Echinochloa oryzicola [14])
CCSc1c(C)on(C(=O)N(c2ccc(Cl)cc2)C(C)C)c1=O | > 91% | > 91% | > 91% | > 91% | > 91% | > 91% | > 91% | > 91% | > 91% | > 91% | 11% | < 10% | > 91% | > 91%
CCSc1c(C)on(C(=O)N(c2ccc(F)cc2)C(C)C)c1=O | > 91% | > 91% | – | – | – | – | > 91% | > 91% | > 91% | > 91% | 51% | – | – | –
CCSc1c(C)on(C(=O)N(c2ccc(C)cc2)C(C)C)c1=O | – | – | 71% | > 91% | > 91% | 31% | – | – | – | – | – | < 10% | > 91% | > 91%
CCSc1c(C)on(C(=O)N(c2ccc(Cl)cc2Cl)C(C)C)c1=O | – | – | 71% | > 91% | > 91% | 71% | – | – | – | – | – | < 10% | > 91% | > 91%
CCSc1c(C)on(C(=O)N(c2ccc(C#N)cc2)C(C)C)c1=O | – | – | 71% | > 91% | > 91% | 71% | – | – | – | – | – | 51% | > 91% | > 91%
CCSc1c(C)on(C(=O)N(c2cccc([N+](=O)[O-])c2)C(C)C)c1=O | – | – | 71% | > 91% | > 91% | 71% | – | – | – | – | – | 11% | > 91% | > 91%
CCSc1c(C)on(C(=O)N(c2cccc(C(F)(F)F)c2)C(C)C)c1=O | – | – | 31% | > 91% | > 91% | 51% | – | – | – | – | – | < 10% | 71% | > 91%
CCSc1c(CC)on(C(=O)N(c2ccc(Cl)cc2)C(C)C)c1=O | > 91% | > 91% | 51% | 71% | > 91% | 51% | 71% | 71% | 71% | > 91% | 31% | < 10% | 51% | > 91%
CCCSc1c(C)on(C(=O)N(c2ccc(Cl)cc2)C(C)C)c1=O | > 91% | > 91% | > 91% | > 91% | > 91% | 51% | > 91% | > 91% | > 91% | > 91% | 31% | < 10% | > 91% | > 91%
CCCSc1c(C)on(C(=O)N(c2ccc(F)cc2F)C(C)C)c1=O | – | – | > 91% | > 91% | > 91% | > 91% | – | – | – | – | – | 11% | > 91% | > 91%
Cc1on(C(=O)N(c2ccc(Cl)cc2)C(C)C)c(=O)c1SC(C)C | > 91% | > 91% | 51% | > 91% | > 91% | 51% | > 91% | 71% | > 91% | > 91% | 31% | < 10% | > 91% | > 91%
CCc1on(C(=O)N(c2ccc(Cl)cc2)C(C)C)c(=O)c1SC(C)C | > 91% | > 91% | – | – | – | – | > 91% | 51% | 51% | > 91% | < 10% | – | – | –
Cc1on(C(=O)N(c2ccc(Cl)cc2)C(C)C)c(=O)c1SC(F)F | – | – | > 91% | > 91% | > 91% | 51% | – | – | – | – | – | 11% | > 91% | > 91%
COCCSc1c(C)on(C(=O)N(c2ccc(Cl)cc2)C(C)C)c1=O | > 91% | > 91% | 51% | > 91% | > 91% | 31% | > 91% | 71% | 51% | > 91% | 11% | < 10% | > 91% | > 91%
C#CCSc1c(C)on(C(=O)N(c2ccc(Cl)cc2)C(C)C)c1=O | > 91% | > 91% | 51% | > 91% | > 91% | 51% | > 91% | 51% | 71% | > 91% | 31% | < 10% | > 91% | > 91%
CCSc1c(C)on(C(=O)N(CC)c2ccc(Cl)cc2)c1=O | – | – | 71% | > 91% | > 91% | 71% | – | – | – | – | – | 31% | > 91% | > 91%
CCCN(C(=O)n1oc(C)c(SCC)c1=O)c1ccc(Cl)cc1 | – | – | 71% | > 91% | > 91% | > 91% | – | – | – | – | – | 11% | > 91% | > 91%
CCSc1c(C)on(C(=O)N(C)c2ccc(Cl)cc2)c1=O | > 91% | > 91% | – | – | – | – | 71% | 71% | 71% | > 91% | 11% | – | – | –
